For 12 molecules, MIC results are on record in DBAASP.

Among the test systems are Escherichia coli; Pseudomonas aeruginosa; Staphylococcus aureus MR; Staphylococcus aureus; Candida albicans; Escherichia coli MG1655; Salmonella typhimurium; Escherichia coli UB1005.
What all share (assay): ≥ marks a high value that may be exact or a test limit, other limits are often not marked, values filed in µg/mL are converted to µM
In test [1] the test system is Escherichia coli NCTC 10418.
In test [2] the test system is Staphylococcus aureus NCTC 10788.
Test [3] deals with Pseudomonas aeruginosa PAO1.
For test [4], the system named is Staphylococcus aureus ATCC 25923.
Test [5] concerns Staphylococcus aureus ATCC 29213.
Test [6] concerns Escherichia coli ATCC 35218.
In test [7] the test system is Pseudomonas aeruginosa ATCC 27853.
Test [8] concerns Salmonella enterica serovar Typhimurium.
The test system of test [9] is Escherichia coli ATCC 25922.
In test [10] the test system is Bacillus subtilis KCTC 3068.
Test [11] relates to Escherichia coli KCTC 1682.
Test [12] has as its system Pseudomonas aeruginosa KCTC 1637.
For test [13], the system named is Salmonella typhimurium KCTC 1926.
For test [14], the system named is Staphylococcus aureus KCTC 1621.
Test [15] relates to Staphylococcus epidermidis KCTC 1917.

Structures are written as SMILES. Converted amounts (≈) assume the structure as drawn. “And” between values parts separate entries of the source, which are not always exact repeats. Identical values can stand only once.

For orientation: MIC means the lowest concentration that inhibits growth of the organism. Read a low MIC as a more susceptible organism. Take `CC[C@H](C)[C@H](NC(=O)[C@H](C)NC(=O)[C@H](CC(C)C)NC(=O)[C@H](Cc1c[nH]c2ccccc12)NC(=O)[C@H](CC(C)C)NC(=O)[C@H](C)N)C(=O)N[C@@H](CCCN=C(N)N)C(=O)N[C@@H](CCCCN)C(=O)N[C@@H](CCCN=C(N)N)C(N)=O` [ALWLAIRKR]: the MIC is 8.88 µM (≈ 9.99 µg/mL) against Escherichia coli, 8.88 µM (≈ 9.99 µg/mL) against Pseudomonas aeruginosa, at least 35.5 µM against Staphylococcus aureus MR and 3.55 µM (≈ 4 µg/mL) in the test on Staphylococcus aureus.
On to `CC[C@H](C)[C@H](NC(=O)[C@H](C)NC(=O)[C@H](CC(C)C)NC(=O)[C@H](Cc1ccc(O)cc1)NC(=O)[C@H](CC(C)C)NC(=O)[C@H](C)N)C(=O)N[C@@H](CCCN=C(N)N)C(=O)N[C@@H](CCCCN)C(=O)N[C@@H](CCCN=C(N)N)C(N)=O` [ALYLAIRKR], for which the MIC in the test with Escherichia coli stood at 3.63 µM (≈ 4 µg/mL); against Pseudomonas aeruginosa, 3.63 µM (≈ 4 µg/mL); against Staphylococcus aureus MR, 27.2 µM (≈ 30 µg/mL); against Staphylococcus aureus, 2.72 µM (≈ 3 µg/mL).
As to `CC[C@H](C)[C@H](NC(=O)CNC(=O)[C@H](C)NC(=O)[C@@H](NC(=O)[C@H](C)NC(=O)[C@@H]1CCCN1C(=O)[C@H](CC(C)C)NC(=O)[C@@H](N)Cc1ccccc1)[C@@H](C)CC)C(=O)N[C@@H](CC(C)C)C(=O)N[C@@H](CO)C(=O)N[C@@H](CCC(N)=O)C(=O)N[C@@H](CC(C)C)C(=O)N[C@@H](Cc1ccccc1)C(N)=O` [FLPAIAGILSQLF], the MIC was at least 50 µM in test [1] and at least 200 µM in test [2].
On to `CC[C@H](C)[C@H](NC(=O)CNC(=O)[C@@H]1CCCN1C(=O)[C@H](CC(C)C)NC(=O)[C@@H](N)Cc1ccccc1)C(=O)N[C@@H](CC(C)C)C(=O)N[C@@H](CCCCN)C(=O)N[C@H](C(=O)N[C@@H](C)C(=O)N[C@@H](C)C(=O)N[C@@H](CC(N)=O)C(=O)N[C@H](C(=O)N[C@H](C(=O)N1CCC[C@H]1C(=O)NCC(=O)N[C@H](C(=O)N[C@H](C(=O)N[C@H]1CSSC[C@@H](C(=O)O)NC(=O)[C@H](CCCCN)NC(=O)[C@H](CCCCN)NC(=O)[C@H]([C@@H](C)O)NC(=O)[C@H]([C@@H](C)CC)NC(=O)[C@H](C)NC1=O)[C@@H](C)CC)C(C)C)C(C)C)C(C)C)C(C)C` [FLPGILKVAANVVPGVICAITKKC], for which the MIC in [1] was at least 256 µM; in test [2], 4 µM and 8 µM.
Turning to `CSCC[C@H](NC(=O)[C@@H](NC(=O)[C@H](CCCCN)NC(=O)[C@H](Cc1cnc[nH]1)NC(=O)[C@H](CC(C)C)NC(=O)CN)C(C)C)C(=O)N[C@@H](CCCN=C(N)N)C(=O)N[C@@H](CCC(=O)O)C(=O)N[C@H](C(=O)N[C@@H](CC(C)C)C(=O)NCC(=O)N[C@@H](Cc1ccc(O)cc1)C(=O)N[C@@H](CCC(=O)O)C(=O)N[C@@H](CCCN=C(N)N)C(=O)N[C@@H](CC(N)=O)C(=O)N[C@@H](CO)C(=O)N[C@@H](Cc1ccc(O)cc1)C(=O)N[C@@H](CCCCN)C(N)=O)C(C)C` [GLHKVMREVLGYERNSYK], the MIC in the test on Candida albicans is above 128 µM; in the test with Escherichia coli MG1655, at least 128 µM; in test [3], above 128 µM; in test [4] it was above 128 µM.
For `CC[C@H](C)[C@H](NC(=O)[C@@H](NC(=O)[C@@H]1CCCN1C(=O)[C@@H](NC(=O)[C@@H](NC(=O)[C@H](Cc1cnc[nH]1)NC(=O)[C@@H]1CCCN1C(=O)[C@H](CC(C)C)NC(=O)[C@@H](NC(=O)[C@H](Cc1cnc[nH]1)NC(=O)[C@H](CCCCN)NC(=O)[C@H](C)NC(=O)[C@@H](NC(=O)[C@H](CO)NC(=O)CNC(=O)[C@H](CC(C)C)NC(=O)[C@@H](NC(=O)[C@H](CO)NC(=O)[C@H](CC(C)C)NC(=O)[C@H](CC(C)C)NC(=O)CN)C(C)C)C(C)C)C(C)C)C(C)C)C(C)C)C(C)C)C(=O)N[C@@H](C)C(=O)N[C@@H](CCC(=O)O)C(=O)N[C@@H](Cc1cnc[nH]1)C(=O)N[C@@H](CC(C)C)C(N)=O` [GLLSVLGSVAKHVLPHVVPVIAEHL], the MIC is at least 120 µM against Escherichia coli MG1655 and 8 µM (≈ 20.7 µg/mL) in test [5].
Consider `CC[C@H](C)[C@H](NC(C)=O)C(=O)N[C@@H](CC(=O)O)C(=O)NCC(=O)N[C@@H](CC(C)C)C(=O)N[C@@H](CCCCN)C(=O)N[C@@H](C)C(=O)N[C@H](C(=O)N[C@@H](Cc1c[nH]c2ccccc12)C(=O)N[C@@H](CCCCN)C(=O)N[C@@H](CCCCN)C(=O)N[C@H](C(=O)N[C@@H](C)C(=O)N[C@@H](CC(=O)O)C(=O)N[C@@H](CC(C)C)C(=O)N[C@@H](CC(C)C)C(=O)N[C@@H](CCCCN)C(=O)N[C@@H](CC(N)=O)C(=O)N[C@H](C(N)=O)[C@@H](C)O)C(C)C)[C@@H](C)CC` [IDGLKAIWKKVADLLKNT], for which the MIC was 9 µM (≈ 18.6 µg/mL) in test [6], 72.5 µM (≈ 150 µg/mL) in [7] and above 72.5 µM in test [4].
Regarding `CC[C@H](C)[C@H](N)C(=O)N[C@@H](CC(C)C)C(=O)N1CCC[C@H]1C(=O)N[C@@H](Cc1c[nH]c2ccccc12)C(=O)N[C@@H](CCCCN)C(=O)N[C@@H](Cc1c[nH]c2ccccc12)C(=O)N1CCC[C@H]1C(=O)N[C@@H](Cc1c[nH]c2ccccc12)C(=O)N[C@@H](C)C(=O)N1CCC[C@H]1C(=O)N[C@@H](C)C(=O)N[C@@H](CCCN=C(N)N)C(=O)N[C@@H](CCCN=C(N)N)C(N)=O` [ILPWKWPWAPARR], the MIC in the test on Candida albicans came to 0.0012 µM (≈ 0.00201 µg/mL); in the test on Escherichia coli it was 119 µM (≈ 200 µg/mL); in the test with Pseudomonas aeruginosa, 23.9 µM (≈ 40 µg/mL); in the test with Salmonella typhimurium, 11.9 µM (≈ 20 µg/mL); against Staphylococcus aureus, 11.9 µM (≈ 20 µg/mL).
Take `CC[C@H](C)[C@H](NC(=O)[C@H](Cc1ccccc1)NC(=O)[C@H](CCCCN)NC(=O)[C@H](CCCCN)NC(=O)[C@H](Cc1c[nH]c2ccccc12)NC(=O)[C@@H](N)CCCCN)C(=O)N[C@@H](CCCCN)C(=O)N[C@@H](CO)C(=O)N[C@@H](CC(C)C)C(=O)N[C@H](C(=O)N[C@@H](CCCCN)C(=O)N[C@@H](CO)C(=O)N[C@@H](C)C(=O)N[C@@H](C)C(=O)N[C@@H](CCCCN)C(=O)N[C@H](C(=O)N[C@H](C(=O)N[C@H](C(=O)N[C@@H](CCCCN)C(=O)N[C@H](C(=O)N[C@@H](C)C(=O)N[C@@H](CCCCN)C(=O)N[C@@H](CCCCN)C(=O)N1CCC[C@H]1C(=O)N[C@@H](CC(C)C)C(=O)N[C@H](C(=O)N[C@H](C(N)=O)C(C)C)[C@@H](C)CC)[C@@H](C)O)C(C)C)C(C)C)[C@@H](C)O)[C@@H](C)O` [KWKKFIKSLTKSAAKTVVKTAKKPLIV]: the MIC with Escherichia coli UB1005 was 0.329 µM (≈ 1 µg/mL); in test [3], 1.31 µM (≈ 4 µg/mL); with Pseudomonas aeruginosa it was 0.93 µM (≈ 2.83 µg/mL); in test [8], 0.986 µM (≈ 3 µg/mL); in the test with Staphylococcus aureus, above 21 µM.
Turning to `CC(C)C[C@H](NC(=O)[C@@H](NC(=O)[C@H](CCCN=C(N)N)NC(=O)[C@H](CCCN=C(N)N)NC(=O)[C@@H](NC(=O)[C@@H](NC(=O)[C@H](CCCN=C(N)N)NC(=O)[C@H](CCCN=C(N)N)NC(=O)[C@@H](NC(=O)[C@H](CC(C)C)NC(=O)[C@@H](N)CCCN=C(N)N)C(C)C)C(C)C)C(C)C)C(C)C)C(=O)N[C@@H](CCCN=C(N)N)C(N)=O` [RLVRRVVRRVLR], the values for the MIC against Staphylococcus aureus MR and against Staphylococcus aureus were at least 63.4 µM and 60.8 µM (≈ 95.9 µg/mL), respectively.
Turning to `CC[C@H](C)[C@H](NC(=O)[C@H](CCCN=C(N)N)NC(=O)[C@H](Cc1c[nH]c2ccccc12)NC(=O)[C@H](CCC(N)=O)NC(=O)[C@@H](N)C(C)C)C(=O)N[C@@H](CCCN=C(N)N)C(=O)N[C@H](C(=O)N[C@@H](CS)C(=O)N[C@H](C(=O)N[C@H](C(=O)N[C@@H](CCCN=C(N)N)C(=O)N[C@@H](C)C(=O)O)[C@@H](C)CC)C(C)C)C(C)C` [VQWRIRVCVIRA], the MIC in [9], in [3], in [8] and in test [4] was 21.3 µM (≈ 32 µg/mL) each time.
In the case of `CC(C)C[C@H](NC(=O)[C@H](Cc1ccccc1)NC(=O)[C@H](CCCN=C(N)N)NC(=O)[C@H](CCCCN)NC(=O)[C@H](Cc1c[nH]c2ccccc12)NC(=O)[C@H](CCCN=C(N)N)NC(=O)[C@H](CCC(N)=O)NC(=O)[C@@H](NC(=O)[C@H](Cc1c[nH]c2ccccc12)NC(=O)[C@H](CCCN=C(N)N)NC(=O)[C@H](CCCCN)NC(=O)[C@@H](N)Cc1c[nH]c2ccccc12)C(C)C)C(=O)N[C@@H](CCCN=C(N)N)C(N)=O` [WKRWVQRWKRFLR], the MIC came out at 4 µM (≈ 7.78 µg/mL) in test [10]; 4 µM (≈ 7.78 µg/mL) in test [11]; 16 µM (≈ 31.1 µg/mL) in [12]; 2 µM (≈ 3.89 µg/mL) in test [13]; 2 µM (≈ 3.89 µg/mL) in [14]; 4 µM (≈ 7.78 µg/mL) in [15].
